Laboratory results taken from US20120107428A1, “REPELLENTS FOR PESTIFEROUS SOCIAL WASPS” (Sterling International Inc., priority 2010, published 2012).

How the values were obtained:
Type in all cases: in vivo
[1] = test system: Yellowjackets (mainly Vespula pensylvanica (ca. 90%), plus V. vulgaris, V. germanica, and Dolichovespula maculata); experiment: Field trapping, Rescue W•H•Y traps baited with attractant heptyl butyrate: captures of yellowjackets; conditions: Table 5, Experiment 5; treatment alone (essential oil mix alone, or attractant HB alone); 13 days in September; N 18
Protocol: (§1) Eleven field trapping experiments were carried out from late August to mid-October 2009 in residential and woody areas around Spokane, Wash., USA, mostly using the trap known by the designation Rescue® W•H•Y (except on one occasion that Rescue® Reusable Yellowjacket Traps were used for a natural food attractant; see below for details). The commercial W•H•Y trap has a top chamber and a bottom chamber and is described in U.S. Patent Application Publication No. 2009/0151228. The top chamber is baited with two attractants—one of which is a solid contained in a vial (2-methyl-1-butanol), and the other is a liquid mixed with water (acetic acid). The bottom chamber is baited with a liquid attractant (heptyl butyrate) poured onto a cotton pad. Separation of the two types of attractants (otherwise antagonistic to each other when released from the same chamber) in two chambers creates two focal attraction sources from one trap for different species of wasps, hornets, and yellowjackets. In order to test potential repellency of essential oils or EAD-active synthetic candidate compounds on different types of attractants, W•H•Y traps were baited with either a top attractant or a bottom attractant depending on the experiments. […]

[2] = test system: Paper wasps (mainly Polistes dominulus, plus a few of P. aurifer); experiment: Field trapping, Rescue W•H•Y traps baited with attractant heptyl butyrate: captures of paper wasps
Protocol: as §1

[3] = test system: yellowjackets (mainly Vespula pensylvanica); experiment: Field observation of landing and approaching of yellowjackets at heptyl butyrate attractant source (experiment 7); conditions: Experiment 7, FIG. 1, attractant alone, 15 minutes observation replicates
Protocol: In addition, the repellency of the essential oil mixture (3EO-mix; at 0 cm and 50 cm above the heptyl butyrate attractant) on the landing behavior of yellowjackets was field observed (as experiment 7) on a September day for roughly 1.5 hours in Spokane, Wash. This observation test was conducted in the sun by setting up in a line east to west four portable light gray folding tables (45.7×66.0×67.3 cm) in a level area of grass near a vineyard. These tables were placed approximately 3 m apart. Chairs were set up approximately 4 m away from the tables for the scientists conducting the observations. On each table a black lab support stand was used with a movable metal bar in the horizontal direction clamped to the support stand for placing a repellent PE-bag dispenser (2 ml of 3EO-mix) or blank PE-bag at either 0 cm or 50 cm above the attractant, heptyl butyrate. A white towel was used to cover the black base of the support stand to provide a uniform color. A circle felt pad (3.5 cm diameter) loaded with 3 ml of heptyl butyrate as attractant or left blank for a negative control in a Petri dish (9 cm diameter) was placed on the base of the stand. […]
Trap catch data (number of wasps/trap/visit) and landing/approaching numbers were transformed by log (X+1) and the transformed means were analyzed by ANOVA, followed by the Duncan's multiple-range test (SPSS 16.0 for Windows) at α=0.05.

SMILES: CCCCCCCOC(=O)CCC [HB, heptyl butyrate]
- Mean/trap/visit ± SE Yellowjackets [1]: 39.7 ± 13.6 b wasps/trap/visit
- attraction of paper wasps to heptyl butyrate ([2]; Experiment 5): not attracted
- Mean/trap/visit ± SE Paper wasps ([2]; Table 5, Experiment 5, treatment alone (essential oil mix alone, or attractant HB alone), 13 days in September, N 18): 1.3 ± 0.6 a wasps/trap/visit
- average number of yellowjackets landing [3]: 5
- average number of yellowjackets approaching ([3]; within 0.5 m): 12
